Test results from publication PMC11110795, “Design, synthesis and antimycobacterial activity of imidazo[1,5-a]quinolines and their zinc-complexes” (RSC Medicinal Chemistry, 2024).
Converted amounts (≈) assume the structure as drawn. Like-named read-outs stand apart in the source and are kept apart here.

Legend:
[1] = test system: Septoria tritici MUCL45408; test: MIC, BacTiter-Glo ATP quantification; assay type: cell-based; settings: read-out: MIC Str
[2] = test system: Mycobacterium tuberculosis H37Ra; test: MIC, BacTiter-Glo ATP quantification, surrogate Mtb strain; assay type: cell-based; settings: for MIC: Mycobacterium tuberculosis, H37RA, 168 h, read-out: MIC Mtb, Mycobacterium tuberculosis H37Ra, 7H9-palmitate, 7 days, BacTiter-Glo, n=3; for MIC Mtb: Mycobacterium tuberculosis H37Ra, 7H9-palmitate, 7 days, BacTiter-Glo, n=3
Description: The antimicrobial effect of the 21 synthesized compounds was initially accessed against a panel of 4 microbial indicator strains (Escherichia coli ATCC35218, Staphylococcus aureus ATCC33592, Septoria tritici MUCL45408 and Mycobacterium tuberculosis H37Ra). Cytotoxicity was investigated using an epithelia cell line from human lung carcinoma (Calu-3).
The minimum inhibitory concentration (MIC) of the […] compounds 5a-i, 6a-b,7a, 8a and C1-8 was determined as previously described with only minor changes. 6,7 Briefly, the cell density of an overnight cultures of Escherichia coli ATCC35218 and Staphylococcus aureus […] was diluted to 5 × 10^5 cells/mL in cation adjusted Mueller Hinton II medium (Becton Dickinson, Sparks, NV, USA) and distributed into 96-well plates. Three 12-point dilution series of rifampicin, tetracycline and gentamicin ranging from 64 - 0.03 µg/mL (all Sigma Aldrich, St. Louis, MO, USA), respectively, were used as positive controls. All tested compounds were dissolved in dimethyl sulfoxide (DMSO, Carl Roth GmbH + Co., Karlsruhe, Germany) and tested in triplicate at the same concentrations as the positive controls.
Bacterial suspensions without test compound or positive control were used as negative controls.
Medium background was averaged from 5 replicates. Assay incubation was done at 37°C, 180rpm and 85% relative humidity. The turbidity of each well was measured with a microplate spectrophotometer at 600 nm (LUMIstar® Omega BMG Labtech, Ortenberg, Germany). Growth inhibition was calculated relative to the absorption of the controls.
For S. tritici MUCL45408, a previously prepared spore solution was used to adjust the assay inoculum to 1 × 10^5 spores/mL in potato dextrose medium (Sigma Aldrich). Septoria assay plates were incubated for 4 days at 25°C, 180 rpm and 85% rH. Tebuconazole (Cayman Chemical Company, Ann Arbor, MI, USA) and amphotericin B (Sigma Aldrich) were used as positive control. Cell viability was evaluated via ATP quantification (BacTiter-Glo™, Promega, Walldorf, Germany) according to the manufacturer’s […]
Mycobacterium tuberculosis ITM-M006710 H37Ra (ATCC 9431) was incubated for 14 days in Middlebrook 7H9 broth (from ThermoFisher Scientific, Walthman, MA, USA) supplemented with 5.6 µg/mL palmitic acid (Sigma Aldrich), 1 mg/mL casitone (ThermoFisher Scientific), 5mg/mL BSA, 4µg/mL catalase (Sigma Aldrich), and 0.2% glycerol at 37°C, 180 rpm and 85% rH. In a first step, the culture was diluted to McFarland standard of 1, before the final inoculum density of a 1 × 10^6 cells/mL was obtained by further dilution with freshly prepared medium. Individual 12-point dilution series of rifampicin, ampicillin and gentamicin (ranging from 64-0.03 µg/mL) were used as positive controls. The assay plates were incubated for 7 days under microaerophilic conditions at 37°C/5% CO2 (BD gaspak CO2 system) and read-out was done by ATP quantification (s. above).
The MIC was defined as the minimum concentration where at least 85% growth inhibition relative to the negative control was measured. Relative inhibition for the microtiter turbidity tests (MTT) were […]
rel. inh.% = 100 * [1- (AU sample - AU Low)/(AU High - AU Low)]
AU: absorption unit at 600nm; Low: medium blank; High: negative control of maximal growth.
Accordingly, the BacTiter-Glo™ (BTG) assays were calculated as rel. inh.% = 100 * [1- (LU sample - LU Low)/(LU High - LU Low)]
AU: luminescence unit; Low: medium blank; High: negative control of maximal growth.
For Mycobacterium tuberculosis ATCC 35801 a resazurin microtiter assay was carried out as previously described8 Briefly, assay plates were set up by transferring 10 µl of compounds form a 1:2-fold dilution series in distilled and sterile water to a 96-well plate. The final assay´s concentrations range from 0.39-100 µM and as positive and negative control 5 µM rifampicin and 0.5% DMSO were used. Subsequently a bacterial suspension with Mycobacterium tuberculosis with a final OD560 of 0.0003 was prepared in […]

[3] = test system: Escherichia coli ATCC35218; test: MIC, microtiter turbidity test; assay type: cell-based
[4] = test system: Staphylococcus aureus ATCC33592; test: MIC, microtiter turbidity test; assay type: cell-based; settings: read-out: MIC Sa
[5] = test system: Mycobacterium tuberculosis ATCC 35801; test: Resazurin microtiter assay, second-tier BSL-3; assay type: cell-based
[6] = in vitro; settings: human
[7] = test system: various Mtb strains; set-up: method as in PMID 27654337, PMID 29900893, PMID 36934122, PMID 32750539; settings: cited from earlier work
[8] = Zymoseptoria tritici, 96 h, Septoria tritici MUCL45408, PDB medium, 4 days, BacTiter-Glo, n=3
[9] = Escherichia coli ATCC35218, MHII medium, turbidity at 600 nm, n=3, read-out: MIC Ec
[10] = Septoria tritici MUCL45408, PDB medium, 4 days, BacTiter-Glo, n=3
[11] = ATCC 33592 / MRSA, Staphylococcus aureus ATCC33592 (MRSA), MHII medium, turbidity at 600 nm, n=3
[12] = Staphylococcus aureus ATCC33592 (MRSA), MHII medium, turbidity at 600 nm, n=3
[13] = Zymoseptoria tritici, MUCL45408, 96 h
[14] = Escherichia coli, ATCC35218, read-out: MIC Ec
[15] = Staphylococcus aureus, ATCC 33592 / MRSA

Row | Structure (SMILES) | MIC [1, 8] | MIC [2] | MIC [3, 9] | MIC [1, 10] | MIC [4, 11] | MIC [4, 12] | also measured
1 | C[C@@H]1[C@H](O)[C@@H](C)/C=C/C=C/C=C/C=C/C=C/C=C/C=C/[C@H](O[C@@H]2O[C@H](C)[C@@H](O)[C@H](N)[C@@H]2O)C[C@@H]2O[C@](O)(C[C@@H](O)C[C@@H](O)[C@H](O)CC[C@@H](O)C[C@@H](O)CC(=O)O[C@H]1C)C[C@H](O)[C@H]2C(=O)O [AMB, amphotericin B, reference compound] | 0.135 µM (≈ 0.125 µg/mL) |  |  |  |  |  | 
2 | COc1ccccc1-c1nc(-c2ccccc2)n2c1ccc1ccccc12 [5i] | > 183 µM | 46 µM (≈ 16.1 µg/mL) | >183 µM | >183 µM | > 183 µM | >183 µM | 
3 | c1ccc(-c2nc(-c3cc4ccccc4cn3)c3ccc4ccccc4n23)cc1 [5g] | > 144 µM | ≤ 2 µM | >144 µM | >144 µM | > 144 µM | >144 µM | inhibition at 20 µM ([5]; ATCC35801, Mtb ATCC 35801, 20 μM): 82%; IC90 ([5]; ATCC35801, read-out: IC90 Mtb ATCC 35801, resazurin, 7 days + 24 h): 132 µM; IC50 ([5]; ATCC35801, resazurin, 7 days + 24 h, read-out: IC50 Mtb ATCC 35801): 86.5 µM; IC90 ([5]; ATCC35801, resazurin, 7 days + 24 h, read-out: IC90 Mtb ATCC 35801): 136 µM; IC50 at 3 days [6]: > 100 µM
4 | c1ccc(-c2nc(-c3ccccn3)c3ccc4ccccc4n23)cc1 [5c] | > 199 µM | 25 µM (≈ 8.03 µg/mL) | >199 µM | >199 µM | > 199 µM | >199 µM | 
5 | c1ccc(-c2nc(-c3ccccn3)n3c2ccc2ccccc23)cc1 [6b] | > 199 µM |  | >199 µM | >199 µM | > 199 µM | >199 µM | 
6 | COc1nc2ccc(Br)cc2cc1[C@@H](c1ccccc1)[C@@](O)(CCN(C)C)c1cccc2ccccc12 [bendaquiline] |  |  |  |  |  |  | MIC, literature reported values [7]: 0.03 to 1 µM
7 | NNC(=O)c1ccncc1 [isoniazid] |  |  |  |  |  |  | MIC, literature reported values [7]: 0.3 to 1.4 µM
8 | CC[C@@H](CO)NCCN[C@@H](CC)CO [ethambutol] |  |  |  |  |  |  | MIC, literature reported values [7]: 0.3 to 3 µM
9 | C[C@H]1COc2c(N3CCN(C)CC3)c(F)cc3c(=O)c(C(=O)O)cn1c23 [levofloxacin] |  |  |  |  |  |  | MIC, literature reported values [7]: 0.8 to 1.4 µM
10 | c1ccc(-c2nc(-c3cccc4ccccc34)n3c2ccc2ccccc23)nc1 [7a] | > 172 µM |  | >172 µM | >172 µM | > 172 µM | >172 µM | 
11 | CC(C)(C)C(O)(CCc1ccc(Cl)cc1)Cn1cncn1 (stereo not shown) [TEB, tebuconazole, reference compound] |  |  |  |  |  |  | MIC [1, 13]: > 0.01 µM
12 | NCC[C@H](O)C(=O)N[C@@H]1C[C@H](N)[C@@H](O[C@H]2O[C@H](CN)[C@@H](O)[C@H](O)[C@H]2O)[C@H](O)[C@H]1O[C@H]1O[C@H](CO)[C@@H](O)[C@H](N)[C@H]1O [amikacin] |  |  |  |  |  |  | MIC, literature reported values [7]: 0.4 to 1.7 µM
13 | CO[C@H]1/C=C/O[C@@]2(C)Oc3c(C)c(O)c4c(O)c(c(/C=N/N5CCN(C)CC5)c(O)c4c3C2=O)NC(=O)/C(C)=C\C=C\[C@H](C)[C@H](O)[C@@H](C)[C@@H](O)[C@@H](C)[C@H](OC(C)=O)[C@@H]1C [rifampicin, reference compound] |  | 0.07 µM (≈ 0.0576 µg/mL) | 5 µM (≈ 4.11 µg/mL) |  | > 78 µM |  | 
14 | c1ccc(N(c2ccccc2)c2nc(-c3ccccn3)c3ccc4ccccc4n23)cc1 [8a] |  | > 155 µM | >155 µM | >155 µM |  | >155 µM | MIC Mtb [2]: >155 µM; MIC [3, 14]: > 155 µM; MIC [1, 13]: > 155 µM; MIC [4, 15]: > 155 µM
15 | CC1(C)S[C@@H]2[C@H](NC(=O)[C@H](N)c3ccccc3)C(=O)N2[C@H]1C(=O)O [AMP, ampicillin, reference compound] |  | 184 µM (≈ 64.3 µg/mL) |  |  |  |  | 
16 | c1ccc(-c2nc(-c3nccc4ccccc34)c3ccc4ccccc4n23)cc1 [5d] | > 172 µM |  | >172 µM | >172 µM | > 172 µM | >172 µM | 
17 | CN(C)c1ccccc1-c1nc(-c2ccccc2)n2c1ccc1ccccc12 [5h] | > 127 µM | 2 µM (≈ 0.727 µg/mL) | >127 µM | >127 µM | > 127 µM | >127 µM | 
18 | c1ccc(-c2nc(-c3ncccn3)c3ccc4ccccc4n23)cc1 [5e] | > 148 µM | 1 µM (≈ 0.322 µg/mL) | >148 µM | >148 µM | > 148 µM | >148 µM | 
19 | c1ccc(-c2nc(-c3ccccn3)n3c2ccc2ccccc23)nc1 [6a] | > 198 µM |  | >198 µM | >198 µM | > 198 µM | >198 µM | 
20 | CC(=O)[O-].CC(=O)[O-].[Cu+2] [Cu(OAc)2, reference compound] |  |  |  |  |  |  | MIC Mtb [2]: 43 µM
21 | c1ccc(-c2nc(-c3cccs3)c3ccc4ccccc4n23)cc1 [5a] |  | > 196 µM | >196 µM | >196 µM |  | >196 µM | MIC Mtb [2]: >196 µM; MIC [3, 14]: > 196 µM; MIC [1, 13]: > 196 µM; MIC [4, 15]: > 196 µM
22 | c1ccc(-c2nc(-c3ccccc3)n3c2ccc2ccccc23)cc1 [5b] | > 200 µM | > 200 µM | >200 µM | >200 µM | > 200 µM | >200 µM | MIC Mtb [2]: >200 µM
23 | CNC(C)C1CCC(N)C(OC2C(N)CC(N)C(OC3OCC(C)(O)C(NC)C3O)C2O)O1 (stereo not shown) [gentamicin, reference compound] |  | 4 µM (≈ 1.91 µg/mL) |  |  |  |  | 
24 | [Cl][Fe]([Cl])[Cl] [FeCl3, reference compound] |  |  | > 394 µM |  |  | > 394 µM | MIC Mtb [2]: > 394 µM
25 | [Cl-].[Cl-].[Zn+2] [ZnCl2, reference compound] |  |  | > 470 µM |  |  | > 470 µM | MIC Mtb [2]: 235 µM
26 | c1ccc(-c2ccc(-c3nc(-c4ccccc4)n4c3ccc3ccccc34)nc2)cc1 [5f] | > 136 µM | 34 µM (≈ 13.5 µg/mL) | >136 µM | >136 µM | > 136 µM | >136 µM | 
